“And” between values parts separate entries of the source, which are not always exact repeats. Identical values can stand only once.
Columns and labels:
[1] = biological target: recombinant PsauGOBP2; experiment: Competitive fluorescence binding assay: displacement of 1-NPN from recombinant PsauGOBP2; design: species or system Peridroma saucia; details: means ± SE, n = 3; for IC50: PsauGOBP2 and 1-NPN, IC50 > 30 μM considered no binding affinity, read-out: IC50 (concentration of ligand halving the initial fluorescence value of 1-NPN); for Ki: Ki = [IC50]/(1 + [1-NPN]/K1-NPN), read-out: Ki (calculated dissociation constant)
Protocol: (§1) For the expression of recombinant PsauGOBP2, pET-30b containing the sequence encoding mature PsauGOBP2 was used to transform BL21 E. coli cells. Protein expression was induced by the addition of IPTG (final concentration 0.4 mM) when the OD600 value of cell culture reached about 0.8. Cells cultured for further 2–4 h at 37°C were harvested by centrifugation. PsauGOBP2 was present as inclusion bodies. 10 mL of 8 M urea and 1 mM DTT in Tris buffer (50 mM, pH 7.4) were then used to solubilise the inclusion body pellet (from 1 L of culture). The dissolved protein was dialyzed against 1 L of Tris buffer (50 mM, pH 7.4). The recombinant protein was purified on the anion exchange resins QFF, following standard protocols previously adopted for other moth OBPs ([Sun et al., 2012]; [Sun et al., 2021]).
Binding affinities of odorants to PsauGOBP2 were measured by competitive binding assays. A panel of 28 compounds (competitors) including the P. saucia female sex pheromone components Z11-16: Ac and Z9-14: Ac and 26 host plant volatiles were used in the assay. The CAS number, source, and purity of these compounds were listed in Supplementary Table S3. A solution of PsauGOBP2 and 1-NPN, both at the concentration of […], was titrated with 1 mM of each competitor (dissolved in methanol) at a final concentration of 10 µM (sex pheromones) or 20 µM (host plant volatiles). The dissociation constants (Ki) of competitors to PsauGOBP2 were calculated using the equation: Ki = [IC50]/(1 + [1-NPN]/K1-NPN), where [IC50] is the concentration of the competitor halving (50%) the initial fluorescence value (100%), [1-NPN] is the free concentration of 1-NPN, and K1-NPN is the dissociation constant of the protein-1-NPN complex.

[2] = biological target: PsauGOBP1; design: method as in Sun et al., 2021; details: binding to PsauGOBP1; ref Sun et al., 2021; cited from earlier work
[3] = biological target: recombinant PsauGOBP2; experiment: Fluorescence binding assay: titration of recombinant PsauGOBP2 with the fluorescent probe 1-NPN; design: species or system Peridroma saucia; details: 2 mM protein in 50 mM Tris-HCl pH 7.4, titrated with 1-NPN to 20 µM; excitation 337 nm; means +SE, n = 3; single binding site; read-out: K1-NPN (dissociation constant of 1-NPN to PsauGOBP2)
Protocol: as §1
The fluorescence binding assays were conducted on a Hitachi F-2710 with a 1 cm light path quartz cuvette. To measure the affinity of the fluorescent probe 1-NPN (N-phenyl-1-naphthylamine) to PsauGOBP2, a […] solution of the protein in 50 mM Tris-HCl, pH 7.4, was titrated with aliquots of 1 mM 1-NPN in methanol to a final concentration of 20 µM. The probe was excited at 337 nm, and emission spectra were recorded between 380 and 460 nm. The dissociation constant of 1-NPN (K1-NPN) to PsauGOBP2 was obtained by processing the data with GraphPad Prism 6.0.

[4] = remaining 1-NPN fluorescence at Max Conc 20 (20 µM, host plant volatiles)
[5] = remaining 1-NPN fluorescence at Max Conc 10 (10 µM, sex pheromones)

IC50 [1] | Fluorescence at max (%) [1, 4] | Ki [1] | Fluorescence at max (%) [1, 5] | SMILES | Ki [2] | Kd [3]
> 30 µM | 79 ± 9% | – | – | C=C1CCC2CC1C2(C)C (stereo not drawn) [β-Pinene, β-pinene] | – | –
> 30 µM | 76 ± 5% | – | – | CC(C)=CCCC(C)=CC=O (mixture of isomers) [Citral] | 5.6 µM | –
> 30 µM | 70 ± 7% | – | – | CC/C=C\CC1C(=O)CCC1CC(=O)OC (centres unmarked) [Methyl jasmonate] | – | –
> 30 µM | 73 ± 7% | – | – | CCCCCCCCCC=O [Decanal] | – | –
19.5 ± 0.6 µM | 49 ± 3% | 13 ± 0.4 µM | – | CCCCCCCCCCCCO [Dodecanol] | – | –
> 30 µM | 69 ± 7% | – | – | CCC/C=C/CO [(E)-2-Hexen-1-ol, (E)-2-hexen-1-ol] | – | –
> 30 µM | 69 ± 3% | – | – | CCC/C=C/COC(C)=O [(E)-2-Hexenyl acetate, (E)-2-hexenyl acetate] | – | –
> 30 µM | 100 ± 3% | – | – | CC(C)=CCC/C(C)=C/CC/C(C)=C/CO [Farnesol] | 6.4 µM | –
> 30 µM | 74 ± 6% | – | – | C=CC(C)(O)CCC=C(C)C (centres unmarked) [Linalool] | – | –
12 ± 0.5 µM | 45 ± 1.5% | 8 ± 0.3 µM | – | C=CC(=C)CCC=C(C)C [β-Myrcene, β-myrcene] | – | –
> 30 µM | 86 ± 2% | – | – | CC/C=C\CCOC(C)=O [(Z)-3-Hexenyl acetate, (Z)-3-hexenyl acetate] | 4 µM | –
> 30 µM | 90 ± 4% | – | – | C=C/C(C)=C/CC=C(C)C [β-Ocimene, β-ocimene] | – | –
> 30 µM | 85 ± 5% | – | – | C=C(C)[C@H]1CC=C(C)CC1 [D-Limonene] | – | –
6.5 ± 1.2 µM | – | 4.2 µM and < 5 µM | 41 ± 4% | CCCC/C=C\CCCCCCCCCCOC(C)=O [Z11-16: Ac] | – | –
> 30 µM | 72 ± 3% | – | – | CC/C=C\CCO [(Z)-3-Hexen-1-ol, (Z)-3-hexen-1-ol] | 8.5 µM | –

The next lines start with the compound.

SMILES | IC50 [1] | Fluorescence at max (%) [1, 4] | Ki [1] | Fluorescence at max (%) [1, 5] | Ki [2] | Kd [3]
COC(=O)c1ccccc1O [Methyl salicylate] | > 30 µM | 79 ± 2% | – | – | – | –
C=C1CC/C=C(\C)CC[C@@H]2[C@@H]1CC2(C)C [(E)-Caryophyllene, (E)-caryophyllene] | > 30 µM | 90 ± 3% | – | – | – | –
CCCCCCCC=O [Octanal] | > 30 µM | 75 ± 2% | – | – | – | –
c1ccc(Nc2cccc3ccccc23)cc1 [1-NPN, N-phenyl-1-naphthylamine] | – | – | – | – | – | 3.2 ± 0.19 µM
CCCCCCCCC=O [Nonanal] | > 30 µM | 85 ± 2% | – | – | 6.8 µM | –
CC/C=C\C[C@H]1C(=O)CC[C@@H]1CC(=O)O [Jasmonic acid] | > 30 µM | 73 ± 5% | – | – | – | –
CCC/C=C/C=O [(E)-2-Hexenal, (E)-2-hexenal] | > 30 µM | 77 ± 3% | – | – | – | –
CC/C=C\CC1=C(C)CCC1=O [(Z)-jasmone] | > 30 µM | 75 ± 3% | – | – | – | –
O=Cc1ccccc1 [Benzaldehyde] | > 30 µM | 74 ± 3% | – | – | 9.4 µM | –
C=CC(=C)CC/C=C(\C)CCC=C(C)C [(E)-β-farnesene] | > 30 µM | 75 ± 7% | – | – | – | –
c1ccc2[nH]ccc2c1 [Indole] | > 30 µM | 100 ± 8% | – | – | – | –
CCCC/C=C\CCCCCCCCOC(C)=O [Z9-14: Ac] | 7.5 ± 0.9 µM | – | 4.9 µM and < 5 µM | 45 ± 3% | – | –
CCCCCCCO [Heptanol] | > 30 µM | 80 ± 2% | – | – | – | –
CC(=O)OCCc1ccccc1 [Phenylethyl acetate] | 10.5 ± 0.5 µM | 39 ± 3% | 6.3 ± 0.3 µM | – | – | –
